Laboratory results taken from patent US20030125285A1, “Method of examining efficacy of therapy with nucleic acid” (priority 2001, published 2003).

Assays:
[1] = test system: SW620 cancer cells; settings: Cancer Research, 59, pp. 4325-4333 (1999); cited from earlier work
[2] = target: T1, protein of SEQ ID NO: 1 (AK002169) (Homo sapiens, UniProt Q96SI9); test: Detection of binding of radio-labeled poly(I)•poly(C) to phage cDNA library proteins on nitrocellulose membrane; settings: [32P]-poly(I)•poly(C) 1 ng/ml-1 μg/ml, chain length 100-500 bp, 42° C., 5-6 hours
T1 construct: made in house
Protocol: (§1) Detection of Binding Ability to Proteins of SEQ ID NO: 1-3
(§2) (1) Each protein was synthesized by plating phages containing cDNA on a petri dish using human HeLa 5′-STRETCH PLUS cDNA library.
(§3) (2) The synthesized protein was transferred to nitrocellulose membrane.
(§4) (3) To the nitrocellulose membrane was added the following test solution containing poly(I)•poly(C) (chain length 100-500 bp) radio-labeled with [γ-^32P]ATP, and subjected to hybridization at 42° C., for 5-6 hours.
(§5) 1 ng/ml-1 μg/ml [^32P]-poly(I)•poly(C)
(§6) The nucleotide sequence of cDNA corresponding to the screened protein was determined with a sequencer to identify the screened protein.

[3] = target: T2, protein of SEQ ID NO: 3 (human TRAL) (Homo sapiens, UniProt P14625); test: as above; settings: [32P]-poly(I)•poly(C) 1 ng/ml-1 μg/ml, chain length 100-500 bp, 42° C., 5-6 hours
T2 construct: made in house
Protocol: as §1, §2, §3, §4, §5, §6

[4] = target: T3, protein of SEQ ID NO: 2 (human TAR RNA binding protein 2, TRBP2) (Homo sapiens, UniProt Q15633); test: as above; settings: [32P]-poly(I)•poly(C) 1 ng/ml-1 μg/ml, chain length 100-500 bp, 42° C., 5-6 hours
T3 construct: made in house
T3 sequence (Q15633 1-366): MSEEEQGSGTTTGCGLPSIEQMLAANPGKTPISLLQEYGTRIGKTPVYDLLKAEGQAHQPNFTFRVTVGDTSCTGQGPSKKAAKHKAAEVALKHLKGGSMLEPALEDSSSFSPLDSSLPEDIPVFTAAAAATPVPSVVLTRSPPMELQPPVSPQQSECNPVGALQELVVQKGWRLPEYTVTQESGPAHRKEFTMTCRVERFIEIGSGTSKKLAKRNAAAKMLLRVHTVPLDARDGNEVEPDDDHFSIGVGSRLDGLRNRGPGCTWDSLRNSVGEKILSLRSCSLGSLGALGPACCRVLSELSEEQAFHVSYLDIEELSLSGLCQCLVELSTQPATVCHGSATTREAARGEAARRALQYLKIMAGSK
Protocol: as §1, §2, §3, §4, §5, §6

[5] = test system: A431 cancer cells; settings: Cancer Research, 59, pp. 4325-4333 (1999); cited from earlier work
[6] = test system: HeLaS3 cancer cells; settings: Cancer Research, 59, pp. 4325-4333 (1999); cited from earlier work
[7] = test system: HeLa cancer cells; settings: Cancer Research, 59, pp. 4325-4333 (1999); cited from earlier work

T2 sequence (P14625 22-803): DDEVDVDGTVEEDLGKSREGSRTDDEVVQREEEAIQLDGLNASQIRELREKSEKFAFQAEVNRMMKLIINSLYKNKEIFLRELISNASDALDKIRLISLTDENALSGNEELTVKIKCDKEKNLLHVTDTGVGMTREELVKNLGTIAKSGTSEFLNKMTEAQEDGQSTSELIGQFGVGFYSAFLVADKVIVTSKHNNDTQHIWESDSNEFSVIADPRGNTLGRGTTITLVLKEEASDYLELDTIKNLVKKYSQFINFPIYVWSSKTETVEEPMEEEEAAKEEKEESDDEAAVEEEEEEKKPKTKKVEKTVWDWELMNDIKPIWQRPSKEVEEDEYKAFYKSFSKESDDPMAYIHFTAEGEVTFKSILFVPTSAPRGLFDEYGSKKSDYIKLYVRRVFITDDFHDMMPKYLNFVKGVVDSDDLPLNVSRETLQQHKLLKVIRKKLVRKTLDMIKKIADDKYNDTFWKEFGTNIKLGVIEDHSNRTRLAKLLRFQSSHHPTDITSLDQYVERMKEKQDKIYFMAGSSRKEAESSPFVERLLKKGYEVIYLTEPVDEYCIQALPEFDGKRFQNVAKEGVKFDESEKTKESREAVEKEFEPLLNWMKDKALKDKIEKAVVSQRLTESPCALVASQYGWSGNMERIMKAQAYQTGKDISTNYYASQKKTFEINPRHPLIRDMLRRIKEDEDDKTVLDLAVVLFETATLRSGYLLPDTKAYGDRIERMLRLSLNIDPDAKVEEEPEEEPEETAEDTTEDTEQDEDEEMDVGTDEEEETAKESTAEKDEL
T1 sequence (Q96SI9 183-672): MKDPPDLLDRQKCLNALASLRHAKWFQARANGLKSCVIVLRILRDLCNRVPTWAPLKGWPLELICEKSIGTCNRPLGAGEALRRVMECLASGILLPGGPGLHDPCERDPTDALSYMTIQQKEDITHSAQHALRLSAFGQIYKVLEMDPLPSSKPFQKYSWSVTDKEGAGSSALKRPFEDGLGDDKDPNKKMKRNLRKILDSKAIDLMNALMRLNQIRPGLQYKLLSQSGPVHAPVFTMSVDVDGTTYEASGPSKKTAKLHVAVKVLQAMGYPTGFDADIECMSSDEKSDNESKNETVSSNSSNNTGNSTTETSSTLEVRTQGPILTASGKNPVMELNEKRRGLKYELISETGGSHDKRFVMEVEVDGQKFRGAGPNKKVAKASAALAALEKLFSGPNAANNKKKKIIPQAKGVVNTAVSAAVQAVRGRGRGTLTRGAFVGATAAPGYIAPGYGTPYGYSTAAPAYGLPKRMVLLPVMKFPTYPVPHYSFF

binding to protein of SEQ ID NO: 1 [2]: bound
binding to protein of SEQ ID NO: 3 [3]: bound
binding to protein of SEQ ID NO: 2 [4]: bound
Substance: polyinosinic acid-polycytidylic acid [poly(I)•poly(C)]
efficacy against cancer cells [1]: inefficacious
efficacy against cancer cells [5]: efficacious
efficacy against cancer cells [6]: efficacious
efficacy against cancer cells [7]: inefficacious
